Each structure is given as a SMILES string.

These results are taken from patent publication US20050181462A1, “Mutant androgen receptor, cancer cells expressing the same, a method of producing them and use thereof” (priority 2002, published 2005).

In the experiment the target is T1, W741C type mutant AR (Homo sapiens, UniProt P10275, DUP77-80/W742C).
T1 construct: expressed in transfected cells; host or cells: Cos-7
In words: Antagonist screening: inhibition of DHT-induced W741C mutant AR transcription activity (luciferase co-transfection). To be noted: 40 nM DHT + 10 μM Compound A. The class given is cell-based. From the text: FIG. 4 is a drawing showing the antagonistic action of Compound A on a W741C type mutant AR. […] Mean±standard error, n=16 for the only-DHT addition group and n=4 for the DHT+Compound A addition group.

T1 sequence (P10275 with tags, fused parts or gaps DUP77-80/W742C): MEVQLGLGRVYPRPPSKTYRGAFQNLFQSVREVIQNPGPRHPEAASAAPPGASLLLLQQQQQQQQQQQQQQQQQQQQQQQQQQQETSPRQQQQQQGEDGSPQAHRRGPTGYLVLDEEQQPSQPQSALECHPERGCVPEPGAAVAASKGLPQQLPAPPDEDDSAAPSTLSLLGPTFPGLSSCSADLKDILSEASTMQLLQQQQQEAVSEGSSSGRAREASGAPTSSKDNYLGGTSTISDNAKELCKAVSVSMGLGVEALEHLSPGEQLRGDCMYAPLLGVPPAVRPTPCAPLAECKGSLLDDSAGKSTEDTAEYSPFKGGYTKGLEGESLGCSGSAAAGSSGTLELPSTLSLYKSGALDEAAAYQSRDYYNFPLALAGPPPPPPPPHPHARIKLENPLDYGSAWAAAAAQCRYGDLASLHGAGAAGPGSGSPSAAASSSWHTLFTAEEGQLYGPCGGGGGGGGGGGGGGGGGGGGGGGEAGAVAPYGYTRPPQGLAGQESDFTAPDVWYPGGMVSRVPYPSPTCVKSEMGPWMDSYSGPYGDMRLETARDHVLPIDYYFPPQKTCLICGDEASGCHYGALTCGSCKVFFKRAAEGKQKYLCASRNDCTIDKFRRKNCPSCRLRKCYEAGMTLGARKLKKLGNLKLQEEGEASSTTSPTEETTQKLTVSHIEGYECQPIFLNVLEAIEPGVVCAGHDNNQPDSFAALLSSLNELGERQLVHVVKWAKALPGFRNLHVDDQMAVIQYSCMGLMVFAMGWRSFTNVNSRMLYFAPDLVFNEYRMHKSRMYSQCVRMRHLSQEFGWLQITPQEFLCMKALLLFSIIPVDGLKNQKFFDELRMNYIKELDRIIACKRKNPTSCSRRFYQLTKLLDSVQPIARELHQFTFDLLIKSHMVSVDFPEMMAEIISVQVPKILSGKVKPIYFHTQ

For `CCOC(=O)c1c(C)[nH]c(C)c1-c1ccc([N+](=O)[O-])cc1` [Compound A, ethyl 2,5-dimethyl-4-(4-nitrophenyl)-1H-pyrrole-3-carboxylate], the “action on W741C type mutant AR transcription activity of DHT” value is listed as “antagonist action”.
